Laboratory results published in patent US7642277B2, “Non-nucleoside reverse transcriptase inhibitors” (Boehringer Ingelheim International GmbH, priority 2002, dated 2010).
pEC50, pIC50: −log10 of the molar value. Read-outs that look alike come from different tables or passages of the source.

Experiments:
HIV-1 (wild type) = experiment: P24 cellular assay (EC50), data identified with * in Table 9, wild type; type: cell-based; settings: Human immunodeficiency virus 1
Text: (§1) P24 Cellular Assay (EC50) (Data Identified with * in Table 9).
(§2) The p24 assay is as described in WO 01/96338, the contents of which are herein incorporated by reference.
(§3) The results are listed in Table 9 as IC50(nM) and EC50 (nM).
(§4) Table legend: A=>100; B=100-50; C=<50; NT=not tested

[1] = target: T1, HIV-1 RT enzyme (wild type) (Human immunodeficiency virus type 1 group M subtype B, UniProt P04585); experiment: Reverse transcriptase (RT) enzymatic assay (IC50), PicoGreen fluorescence, wild type; type: biochemical
T1 construct: The reverse transcriptase (RT) enzyme assay has been adapted to a 96-well microtiter plate format
Method in brief: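 Enzyme at ≈10 nM in 50 mM Tris/HCl pH 7.8 with 60 mM NaCl, 2 mM MgCl2, 6 mM DTT, 2 mM GSH, 0.02% Chaps; 15 min preincubation with compound at room temperature, then substrate added and run 50 min at 37 °C. EDTA quench; product DNA read by PicoGreen fluorescence.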

[2] = tested on: HIV-1 resistant mutant K103N/Y181C; experiment: P24 cellular assay (EC50), data identified with * in Table 9, resistant mutant; type: cell-based; settings: Human immunodeficiency virus 1, read-out: EC50 K103N/Y181C
Text: as §1, §2, §3, §4

[3] = target: T2, HIV-1 RT resistant mutant K103N/Y181C (Human immunodeficiency virus type 1 group M subtype B, UniProt P04585, K690N/Y768C); experiment: Reverse transcriptase (RT) enzymatic assay (IC50), PicoGreen fluorescence, resistant mutant; type: biochemical
T2 construct: The reverse transcriptase (RT) enzyme assay has been adapted to a 96-well microtiter plate format

[4] = RT enzymatic assay, wild type, read-out: IC50 WT

SMILES	pEC50 (HIV-1 (wild type))	pIC50 [1]	pEC50 [2]	pIC50 [3]	pIC50 [1, 4]
Cc1cccc(-n2nnnc2SCC(=O)Nc2ccccc2[N+](=O)[O-])c1 [Entry 118]	> 7.30	7.00 to 7.30	< 7.00	< 7.00	
Cc1cccc(Cl)c1-n1nnnc1SCC(=O)Nc1ccccc1[N+](=O)[O-] [Entry 139]	> 7.30	> 7.30		< 7.00	
COc1ccc(Cl)cc1-n1nnnc1SCC(=O)Nc1ccccc1[N+](=O)[O-] [Entry 136]	> 7.30	7.00 to 7.30	< 7.00	< 7.00	
Cc1cc(C)c(-n2nnnc2SCC(=O)Nc2ccccc2[N+](=O)[O-])c(C)c1 [Entry 141]	> 7.30	< 7.00	> 7.30	< 7.00	
Clc1ccccc1[C@@H]1C[C@H]1CSc1nnnn1-c1cccc2ccccc12 (relative stereo) [Entry 316, trans-5-{{{2-(2-Chlorophenyl)cyclopropyl}methyl}thio}-1-(1-naphthalenyl)-1H-tetrazole]	> 7.30	7.00 to 7.30		< 7.00	
O=C(COc1ccccc1-c1cccc2ccccc12)Nc1ccccc1[N+](=O)[O-] [Entry 409]	< 7.00				< 7.00
Cc1cccc(-n2nnnc2SCC(=O)Nc2ccccc2[N+](=O)[O-])c1C [Entry 122]	> 7.30	> 7.30	< 7.00	< 7.00	
CC(C)Oc1cc(-n2nnnc2SCC(=O)Nc2ccccc2[N+](=O)[O-])c(Cl)cc1Cl [Entry 134]	> 7.30	> 7.30	< 7.00	< 7.00	
O=C(CSc1nnnn1-c1cccc(Cl)c1Cl)Nc1ccccc1[N+](=O)[O-] [Entry 123]			7.00 to 7.30	< 7.00	> 7.30
N#Cc1ccc(NC(=O)CSc2nnnn2-c2cccc3ccccc23)c(Cl)c1 [Entry 239]	> 7.30	7.00 to 7.30	< 7.00	< 7.00	
S=C(CSc1nnnn1-c1cccc2ccccc12)Nc1ccccc1Cl [Entry 308]	7.00 to 7.30	< 7.00			
Cc1c(Cl)cccc1-n1nnnc1SCC(=O)Nc1ccccc1[N+](=O)[O-] [Entry 124]	> 7.30	> 7.30	7.00 to 7.30	< 7.00	
Cc1cc(C)c(-n2nnnc2SCC(=O)Nc2ccccc2Cl)c(C)c1 [Entry 421]	> 7.30		< 7.00	< 7.00	> 7.30
COc1ccccc1-n1nnnc1SCC(=O)Nc1ccccc1[N+](=O)[O-] [Entry 115]	> 7.30	7.00 to 7.30	< 7.00	< 7.00	
COC(=O)c1ccc(NC(=O)CSc2nnnn2-c2cccc3ccccc23)c(Cl)c1 [Entry 235]	> 7.30	> 7.30		< 7.00	
Cc1ccc(-n2nnnc2SCC(=O)Nc2ccccc2[N+](=O)[O-])c(Br)c1 [Entry 130]	> 7.30	> 7.30		< 7.00	
OC(CCSc1nnnn1-c1cccc2ccccc12)c1ccccc1Cl (stereo not drawn) [Entry 317, 5-{{3-(2-Chlorophenyl)-3-hydroxypropyl}thio}-1-(1-naphthalenyl)-1H-tetrazole]	> 7.30	7.00 to 7.30		< 7.00	
CC(Sc1nnnn1-c1cccc2ccccc12)C(=O)Nc1ccccc1[N+](=O)[O-] (stereo not drawn) [Entry 301]	> 7.30	7.00 to 7.30	< 7.00	< 7.00	
O=C(CSc1nnnn1-c1cccc2ccccc12)Nc1ccccc1[N+](=O)[O-] [Entry 101, 2-{{1-(1-Naphthalenyl)-1H-tetrazol-5-yl}thio}-N-(2-nitrophenyl)acetamide]	> 7.30		< 7.00		
O=C(CSc1nnnn1-c1ccccc1F)Nc1ccccc1[N+](=O)[O-] [Entry 113]	> 7.30	> 7.30		< 7.00	
CN(C)c1ccc(-n2nnnc2SCC(=O)Nc2ccccc2[N+](=O)[O-])c2ccccc12 [Entry 102]	> 7.30	> 7.30		< 7.00	
Cc1ccccc1-n1nnnc1SCC(=O)Nc1ccccc1[N+](=O)[O-] [Entry 109]	> 7.30	7.00 to 7.30	< 7.00	< 7.00	

SMILES	pEC50 (HIV-1 (wild type))	pIC50 [1]	pEC50 [2]	pIC50 [3]	pIC50 [1, 4]
O=C(CSc1nnnn1-c1cccc2ccccc12)Nc1ccccc1Br [Entry 209]	< 7.00	> 7.30			
COC(=O)c1ccccc1-n1nnnc1SCC(=O)Nc1ccccc1[N+](=O)[O-] [Entry 117]			< 7.00	< 7.00	> 7.30
COc1ccc(-n2nnnc2SCC(=O)Nc2ccccc2[N+](=O)[O-])c(C)c1 [Entry 127]	> 7.30	> 7.30	< 7.00	< 7.00	
O=C(CSc1nnnn1-c1cccc2ccccc12)Nc1ccccc1I [Entry 210]	> 7.30	7.00 to 7.30	< 7.00		
Cc1cc(Br)cc(C)c1-n1nnnc1SCC(=O)Nc1ccccc1[N+](=O)[O-] [Entry 140]	> 7.30	> 7.30	> 7.30	< 7.00	
O=C(CSc1nnnn1-c1ccccc1C(F)(F)F)Nc1ccccc1[N+](=O)[O-] [Entry 111]	> 7.30	7.00 to 7.30	< 7.00	< 7.00	
O=C(CSc1nnnn1-c1cccc2c1CCCC2)Nc1ccccc1[N+](=O)[O-] [Entry 104]	> 7.30	> 7.30	< 7.00	< 7.00	
O=C(CSc1nnnn1-c1ccccc1Cl)Nc1ccccc1[N+](=O)[O-] [Entry 114]	> 7.30	> 7.30	< 7.00	< 7.00	
Cc1ccc(F)cc1-n1nnnc1SCC(=O)Nc1ccccc1[N+](=O)[O-] [Entry 135]	> 7.30	> 7.30	< 7.00	< 7.00	
OC(CSc1nnnn1-c1cccc2ccccc12)Cc1ccccc1Cl (stereo not drawn) [Entry 318, 5-{{3-(2-Chlorophenyl)-2-hydroxypropyl}thio}-1-(1-naphthalenyl)-1H-tetrazole]	> 7.30	7.00 to 7.30		< 7.00	
CSc1ccccc1-n1nnnc1SCC(=O)Nc1ccccc1[N+](=O)[O-] [Entry 116]	> 7.30	> 7.30		< 7.00	
O=C(CSc1nnnn1-c1ccc2ccccc2c1)Nc1ccccc1[N+](=O)[O-] [Entry 103]	> 7.30	> 7.30	< 7.00	< 7.00	
OC(CNc1ccccc1Cl)CSc1nnnn1-c1cccc2ccccc12 (stereo not drawn) [Entry 330, 5-{{3-{(2-Chlorophenyl)amino}-2-hydroxypropyl}thio}-1-(1-naphthalenyl)-1H-tetrazole]	> 7.30	7.00 to 7.30		< 7.00	
COc1cc(-n2nnnc2SCC(=O)Nc2ccccc2[N+](=O)[O-])c(Cl)cc1Cl [Entry 133]	> 7.30	> 7.30	< 7.00	< 7.00	
O=C(CSc1nnnn1-c1ccc2c(c1)CCC2)Nc1ccccc1[N+](=O)[O-] [Entry 105]	> 7.30	> 7.30	< 7.00	< 7.00	
O=C(CSc1nnnn1-c1cccc2ccccc12)Nc1cccc(F)c1F [Entry 230]	7.00 to 7.30	7.00 to 7.30	< 7.00		
Cc1ccc(-n2nnnc2SCC(=O)Nc2ccccc2[N+](=O)[O-])c(Cl)c1 [Entry 129]	> 7.30	> 7.30	> 7.30	< 7.00	
O=C(CSc1nncn1-c1cccc2ccccc12)Nc1ccccc1[N+](=O)[O-] [Entry 402, 2-{{4-(1-Naphthalenyl)-4H-1,2,4-triazol-3-yl}thio}-N-(2-nitrophenyl)acetamide]	> 7.30		< 7.00	< 7.00	7.00 to 7.30
Cc1ccc(-n2nnnc2SCC(=O)Nc2ccccc2[N+](=O)[O-])c(C)c1 [Entry 125]	> 7.30	> 7.30	< 7.00	< 7.00	
O=C(CSc1nnnn1-c1cccc2ccccc12)Nc1ccc(Cl)cc1Cl [Entry 234]	7.00 to 7.30	7.00 to 7.30	< 7.00		
O=C(CSc1nnnn1-c1cccc2ccccc12)Nc1ccc(C(=O)O)cc1Cl [Entry 236]	< 7.00	7.00 to 7.30	< 7.00	< 7.00	
Cc1cc(Cl)ccc1-n1nnnc1SCC(=O)Nc1ccccc1[N+](=O)[O-] [Entry 128]	> 7.30	< 7.00	< 7.00	< 7.00	
